Results from patent US20230414689A1, “COMPOSITION FOR PREVENTING, IMPROVING OR TREATING INFLAMMATORY BOWEL DISEASE, COMPRISING ISATIDIS FOLIUM EXTRACT” (MTHERA PHARMA CO., LTD, priority 2021, published 2023).

How the values were obtained:
[1] = tested on: 2.5% DSS-induced inflammatory bowel disease animal model; assay: Spleen weight and length (spleen ratio) in DSS-induced inflammatory bowel disease mice; format: in vivo, C57BL/6N male mice; settings: 5-ASA 100 mg/kg oral, last day of administration
Description: (§1) 6-week-old C57BL/6N male mice were purchased and pre-bred for one week, and then they were randomly divided into a total of 4 groups of 8 mice per group, and experiments were conducted as shown in Table 1 below.
A representative symptom that can occur in relation to inflammatory bowel disease includes splenitis. As such, when the spleen becomes inflamed, the size of the spleen is increased by its nature (Nutrients 2019, 11(11), 2776), and in fact, it is known that the spleen becomes enlarged in the model of IBD induced after DSS treatment (Biol. Pharm. Bull. 43, 450-457 (2020)). Therefore, in order to evaluate the level of inflammation in the spleen of mice according to the administration of the Isatidis folium extract of the present invention, the mouse of Example 1 was sacrificed on the last day of each administration, and then the weight and length of the spleen of each group compared to those of the negative control group were measured, and the spleen ratio is shown.

[2] = tested on: 2.5% DSS-induced inflammatory bowel disease animal model; assay: Body weight change in DSS-induced inflammatory bowel disease mice; format: in vivo, C57BL/6N male mice; settings: 5-ASA 100 mg/kg oral for 10 days; 2.5% DSS in drinking water 8 days; body weight before DSS = 100%; negative control 84.50±2.78%, normal 104.89±1.09%
Description: as §1
Body weight loss is a representative symptom of inflammatory bowel disease (Scientific Reports volume 10, Article number: 3829 (2020)). The body weight of the mouse was measured once a day at the same time (10 am) using an electronic scale. The rate of change in body weight of each group was obtained by summing the body weight of 8 mice per group and then dividing by 8. The average body weight immediately before the start of administration of 2.5% DSS in drinking water was set as 100%, and the average body weight of each group was calculated every day to measure the rate of change in body weight. Significance was verified by performing a Mann-Whitney test for each group between the negative control group to which 2.5% DSS was administered in drinking water and the experimental group.

**Q.** Which “decrease of weight and length of the spleen compared to negative control group” value [1] does the source give for Nc1ccc(O)c(C(=O)O)c1 [5-ASA, 5-aminosalicylic acid] here?
**A.** The value was 60.6%.

**Q.** What about the “rate of change in body weight” value [2] of the same compound?
**A.** Its value is 88.62±1.52%.
